Results from ChEMBL document CHEMBL5344464, “Forgotten Natural Products: Semisynthetic Development of Blasticidin S As an Antibiotic Lead” (ACS Med Chem Lett, 2024).
Converted amounts (≈) assume the structure as drawn.

Experiments:
Klebsiella pneumoniae = test: Antibacterial activity against Klebsiella pneumoniae ATCC 29665 assessed as minimum inhibitory concentration incubated for 16 to 18 hrs by broth microdilution method; type: functional; settings: time 16-18 hrs
Enterococcus faecalis = test: Antibacterial activity against Enterococcus faecalis ATCC 29212 assessed as minimum inhibitory concentration incubated for 24 hrs by broth microdilution method; type: functional

SMILES	MIC90 (Klebsiella pneumoniae)	MIC90 (Enterococcus faecalis)
CCCNC(=O)[C@H]1O[C@@H](n2ccc(N)nc2=O)C=C[C@@H]1NC(=O)C[C@@H](N)CCN(C)C(=N)N	128 µg/mL (≈ 276 µM)	–
CNC(=O)[C@H]1O[C@@H](n2ccc(N)nc2=O)C=C[C@@H]1NC(=O)C[C@@H](N)CCN(C)C(=N)N	–	16 µg/mL (≈ 36.7 µM)
CN(C)C(=O)[C@H]1O[C@@H](n2ccc(N)nc2=O)C=C[C@@H]1NC(=O)C[C@@H](N)CCN(C)C(=N)N	–	16 µg/mL (≈ 35.6 µM)
CN(CC[C@H](N)CC(=O)N[C@H]1C=C[C@H](n2ccc(N)nc2=O)O[C@@H]1C(=O)O)C(=N)N [BLASTICIDIN_S]	–	32 µg/mL (≈ 75.7 µM)
